Test results from US20220392580A1, “COMPUTATIONAL MODEL TRAINED TO PREDICT INTERACTING PAIRS BASED ON WEAKLY-CORRELATED FEATURES” (Cornell University, priority 2016, published 2022).
Where a name gives a salt, the structure may show the parent alone.

Experiments:
[1] = test system: breast cancer patients; details: recent clinical trials; cited from earlier work
[2] = test system: the kinome
[3] = test system: other GPCRs; assay: in vitro profiling of GPCR activity, heterologous reporter assay for arrestin recruitment; type: cell-based; details: under the evaluated conditions
Method: (§1) To test the target prediction, in vitro profiling of GPCR activity using a hetereologous reporter assay for arrestin recruitment, a hallmark of GPCR activation was performed.

[4] = test system: D2-like (DRD2/3/4) subfamily of dopamine receptors; details: arrestin recruitment GPCR profiling
Method: as §1

[5] = target: DRD4 (Homo sapiens, UniProt P21917); details: arrestin recruitment GPCR profiling; potency relative to DRD2 and DRD3
Method: as §1

[6] = test system: short and long isoforms of DRD2; details: arrestin recruitment GPCR profiling
Method: as §1

[7] = test system: D1-like (DRD1/5) subfamily of dopamine receptors; details: arrestin recruitment GPCR profiling
Method: as §1

[8] = test system: nuclear hormone receptors; assay: interaction profiling
[9] = target: T1, DRD2L (Homo sapiens, UniProt P14416); assay: antagonism of arrestin recruitment to DRD2L, Gaddam/Schild EC50 shift analysis; type: cell-based; set-up: expressed in transfected cells; details: dopamine completely reverses dose-dependent antagonism of up to 100 uM ONC201
Method: as §1

[10] = target: T1, DRD2L; details: another measure of DRD2L activation
[11] = test system: other drug targets of FDA-approved cancer therapies; assay: interaction profiling

T1 sequence (P14416 whole entry): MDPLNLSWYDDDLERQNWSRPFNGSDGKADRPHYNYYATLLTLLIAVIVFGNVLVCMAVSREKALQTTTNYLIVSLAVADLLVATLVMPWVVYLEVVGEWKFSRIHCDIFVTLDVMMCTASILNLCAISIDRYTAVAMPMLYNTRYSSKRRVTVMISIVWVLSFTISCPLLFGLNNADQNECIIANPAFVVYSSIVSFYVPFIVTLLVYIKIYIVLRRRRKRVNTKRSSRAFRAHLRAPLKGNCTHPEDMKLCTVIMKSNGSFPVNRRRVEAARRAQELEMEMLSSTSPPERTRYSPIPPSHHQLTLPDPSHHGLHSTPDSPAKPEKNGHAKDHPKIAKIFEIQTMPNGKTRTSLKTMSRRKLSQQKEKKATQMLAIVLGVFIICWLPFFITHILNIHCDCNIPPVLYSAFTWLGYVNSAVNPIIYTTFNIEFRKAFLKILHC
DRD4, sequence (P21917 whole entry): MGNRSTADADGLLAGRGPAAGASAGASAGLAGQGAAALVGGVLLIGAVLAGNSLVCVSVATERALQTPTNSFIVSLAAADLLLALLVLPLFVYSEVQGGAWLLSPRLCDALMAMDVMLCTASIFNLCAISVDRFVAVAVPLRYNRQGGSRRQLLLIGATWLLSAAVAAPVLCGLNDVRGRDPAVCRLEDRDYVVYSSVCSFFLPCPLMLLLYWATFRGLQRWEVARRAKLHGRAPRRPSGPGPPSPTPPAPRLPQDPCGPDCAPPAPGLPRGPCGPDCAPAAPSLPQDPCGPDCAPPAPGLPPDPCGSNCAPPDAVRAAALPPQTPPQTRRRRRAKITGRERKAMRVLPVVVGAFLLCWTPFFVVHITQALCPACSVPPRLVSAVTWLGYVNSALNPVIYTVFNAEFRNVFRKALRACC

SMILES	patients showing any detectable response after treatment [1] [%]	interactions with the kinome [2]	antagonism of other GPCRs [3]	antagonism of D2-like dopamine receptors [4]	antagonism of DRD4 [5]	antagonism of DRD2 short and long isoforms [6]	antagonism of D1-like dopamine receptors [7]	interactions with nuclear hormone receptors [8]	mode of antagonism of DRD2L (reversal by dopamine) [9]	cAMP modulation in response to compound [10]	interactions with other drug targets of FDA-approved cancer therapies [11]
C=C1C[C@@H]2CC[C@@]34C[C@H]5O[C@H]6[C@@H](O3)[C@H]3O[C@H](CC[C@@H]3O[C@H]6[C@H]5O4)CC(=O)C[C@@H]3[C@@H](OC)[C@@H](C[C@H](O)CN)O[C@H]3C[C@H]3O[C@@H](CC[C@@H]1O2)C[C@@H](C)C3=C [Eribulin, Eribulin mesylate]	< 50	–	–	–	–	–	–	–	–	–	–
Cc1ccccc1CN1C(=O)C2=C(CCN(Cc3ccccc3)C2)N2CCN=C12 [ONC201]	–	no significant interactions	no observed antagonism	selectively antagonizes	weaker potency	antagonized	but not D1-like (DRD1/5)	no significant interactions	direct, competitive antagonism	Confirmatory results	no significant interactions
